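Assay format: 96-well plates, 48-hour exposure. GI50: concentration for 50% inhibition of growth.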 The source made the active and inactive calls. No stated cut-off is given here; in the data, active = GI50 up to about 1.1 µM and inactive = higher.
Legend:
Assay in all cases: NCI-60 cell line screen, 48 h
EKVX = tested on: EKVX
HCC 2998 = tested on: HCC 2998
HL-60 = tested on: HL-60
HOP-92 = tested on: HOP-92
MOLT-4 = tested on: MOLT-4
Malme-3M = tested on: Malme-3M
NCI-H23 = tested on: NCI-H23
NCI-H460 = tested on: NCI-H460
OVCAR-5 = tested on: OVCAR-5
OVCAR-8 = tested on: OVCAR-8
RPMI-8226 = tested on: RPMI-8226
SF-295 = tested on: SF-295
SK-MEL-28 = tested on: SK-MEL-28
SK-OV-3 = tested on: SK-OV-3
SNB-75 = tested on: SNB-75
UACC-257 = tested on: UACC-257
Hs-578T = tested on: Hs-578T
MDA-N = tested on: MDA-N
PC-3 = tested on: PC-3

Measured: GI50

OCc1c(-c2cccc3ccccc23)sc(-c2cccc3ccccc23)c1CO
inactive: EKVX 11.3 µM | HCC 2998 18.1 µM | HL-60 15.5 µM | HOP-92 15.1 µM | MOLT-4 9.04 µM | Malme-3M 12.2 µM | NCI-H23 14.5 µM | NCI-H460 14.3 µM | OVCAR-5 17 µM | OVCAR-8 13 µM | RPMI-8226 6.9 µM | SF-295 14.1 µM | SK-MEL-28 10.4 µM | SK-OV-3 15.2 µM | SNB-75 14.3 µM | UACC-257 12.8 µM

NC(=S)N/N=C/C(O[C@@H](/C=N/NC(N)=S)CO)n1cnc2c(N)ncnc21 (stereo partly specified)
inactive: EKVX > 100 µM | HCC 2998 > 100 µM | HL-60 67 µM | HOP-92 97.5 µM | MOLT-4 50.7 µM | Malme-3M > 100 µM | NCI-H23 > 100 µM | NCI-H460 > 80.5 µM | OVCAR-5 > 100 µM | OVCAR-8 > 91.2 µM | RPMI-8226 > 45 µM | SF-295 > 100 µM | SK-MEL-28 > 100 µM | SK-OV-3 > 100 µM | SNB-75 > 52.4 µM | UACC-257 > 100 µM

C=C(Br)N(CC)CC
inactive: EKVX > 100 µM | HCC 2998 > 100 µM | HL-60 > 100 µM | HOP-92 > 100 µM | MOLT-4 > 100 µM | Malme-3M > 100 µM | NCI-H23 > 100 µM | NCI-H460 > 100 µM | OVCAR-5 > 100 µM | OVCAR-8 > 100 µM | RPMI-8226 > 100 µM | SF-295 > 100 µM | SK-MEL-28 > 100 µM | SK-OV-3 > 100 µM | SNB-75 > 100 µM | UACC-257 > 100 µM

CCCC(=O)Oc1ccc2c(C)cc(=O)oc2c1OC(=O)CCC
inactive: EKVX 70.5 µM | HOP-92 41.3 µM | Hs-578T 56.6 µM | MDA-N > 100 µM | MOLT-4 50 µM | Malme-3M 24.3 µM | NCI-H23 48.8 µM | OVCAR-5 > 100 µM | OVCAR-8 34.8 µM | PC-3 59.3 µM | RPMI-8226 26.4 µM | SF-295 82.6 µM | SK-MEL-28 54.2 µM | SK-OV-3 > 100 µM | SNB-75 40.6 µM | UACC-257 36.1 µM

C/C(CC(=O)Nc1ccccc1[N+](=O)[O-])=N\NC(N)=O
inactive: EKVX > 100 µM | HCC 2998 > 100 µM | HL-60 > 100 µM | HOP-92 > 100 µM | MOLT-4 > 100 µM | Malme-3M > 100 µM | NCI-H23 > 100 µM | NCI-H460 > 100 µM | OVCAR-5 > 100 µM | OVCAR-8 > 100 µM | RPMI-8226 > 100 µM | SF-295 > 100 µM | SK-MEL-28 > 100 µM | SK-OV-3 > 100 µM | SNB-75 > 100 µM | UACC-257 > 100 µM

CCOc1ccccc1NC(=O)C(=O)CC(=O)C1=C(C)Nc2ccccc2S1
inactive: EKVX > 100 µM | HCC 2998 > 100 µM | HL-60 > 21.1 µM | HOP-92 > 100 µM | MOLT-4 > 49.7 µM | Malme-3M > 100 µM | NCI-H23 > 100 µM | NCI-H460 > 100 µM | OVCAR-5 > 100 µM | OVCAR-8 > 100 µM | RPMI-8226 > 100 µM | SF-295 > 100 µM | SK-MEL-28 > 100 µM | SK-OV-3 > 100 µM | SNB-75 > 100 µM | UACC-257 > 100 µM

CCCCCCCCCCCCCCCCCc1nc(C#N)c(N)o1
inactive: EKVX > 100 µM | HL-60 3.53 µM | HOP-92 74.5 µM | Hs-578T 20.8 µM | MDA-N > 100 µM | MOLT-4 5.06 µM | OVCAR-5 73.1 µM | OVCAR-8 13.8 µM | PC-3 24.4 µM | RPMI-8226 5.27 µM | SK-MEL-28 > 100 µM | SK-OV-3 > 100 µM | SNB-75 21.4 µM | UACC-257 > 100 µM

O=C(O)C1CC2C3CCC2C1C3=O (stereo unspecified)
inactive: EKVX > 100 µM | HCC 2998 > 100 µM | HL-60 > 100 µM | HOP-92 > 100 µM | Hs-578T > 100 µM | MDA-N > 100 µM | MOLT-4 > 100 µM | Malme-3M > 100 µM | NCI-H23 > 100 µM | NCI-H460 > 100 µM | OVCAR-5 > 100 µM | OVCAR-8 > 100 µM | PC-3 > 100 µM | SF-295 > 100 µM | SK-MEL-28 > 100 µM | SK-OV-3 > 100 µM | SNB-75 > 100 µM | UACC-257 > 100 µM

FC(F)(F)C1(C(F)(F)F)C2CCC3(CC(F)(F)C(F)(F)S3)C1C2 (stereo unspecified)
inactive: EKVX 32.4 µM | HCC 2998 > 100 µM | HL-60 27.9 µM | Hs-578T > 100 µM | MDA-N > 100 µM | MOLT-4 23.4 µM | Malme-3M 34 µM | NCI-H23 35.7 µM | NCI-H460 41.3 µM | OVCAR-5 48.6 µM | OVCAR-8 > 100 µM | PC-3 37.2 µM | RPMI-8226 28.2 µM | SF-295 55.1 µM | SK-MEL-28 > 100 µM | SK-OV-3 > 100 µM | SNB-75 61.9 µM | UACC-257 26.1 µM

CN(NC(=O)/C(=C\c1ccco1)NC(=O)c1ccccc1)c1cn[nH]c(=O)c1Cl
inactive: EKVX > 100 µM | HOP-92 > 100 µM | Hs-578T 52.1 µM | MOLT-4 29.6 µM | Malme-3M 39.3 µM | NCI-H23 > 100 µM | NCI-H460 > 100 µM | OVCAR-5 > 100 µM | OVCAR-8 42.7 µM | PC-3 > 100 µM | RPMI-8226 21.1 µM | SF-295 64.4 µM | SK-MEL-28 36.6 µM | SK-OV-3 > 100 µM | SNB-75 23.4 µM | UACC-257 48.8 µM

COC(=O)[C@]12CC[C@H]3CN(C(=O)OCc4ccccc4)[C@H]([C@H]31)[C@H](c1ccco1)N2
inactive: EKVX 39.9 µM | HCC 2998 > 100 µM | HL-60 28.8 µM | HOP-92 29.4 µM | Hs-578T 42.4 µM | MDA-N 30.8 µM | MOLT-4 19.8 µM | Malme-3M 23.3 µM | NCI-H23 17.3 µM | NCI-H460 45.6 µM | OVCAR-5 > 100 µM | OVCAR-8 33 µM | PC-3 33.2 µM | RPMI-8226 27.4 µM | SF-295 32.1 µM | SK-MEL-28 51.3 µM | SK-OV-3 > 100 µM | UACC-257 29.9 µM

CC/C=C\C/C=C\C/C=C\CCCCCCCC(=O)OCC(O)CO (stereo unspecified)
inactive: EKVX > 88.7 µM | HCC 2998 > 100 µM | HL-60 20.7 µM | HOP-92 > 68.1 µM | MOLT-4 > 46.2 µM | Malme-3M > 100 µM | NCI-H23 > 74.5 µM | NCI-H460 > 69.3 µM | OVCAR-5 > 100 µM | OVCAR-8 > 67.8 µM | RPMI-8226 43.4 µM | SF-295 > 83.2 µM | SK-MEL-28 > 100 µM | SK-OV-3 > 100 µM | SNB-75 > 100 µM | UACC-257 > 86.1 µM

From ChEMBL document CHEMBL1201862, “PubChem BioAssay data set” (2004)
